Measured values as given in ChEMBL document CHEMBL4368926, “Arylpyridines, arylpyrimidines and related compounds as potential modulator agents of the VEGF, hTERT and c-Myc oncogenes” (Bioorg Med Chem, 2019).

Assays:
[1] = test system: HT-29; test: Down-regulation of hTERT mRNA expression in human HT-29 cells assessed as hTERT mRNA level at 40 uM after 48 hrs by RT-qPCR analysis (reference value: 100%); assay type: functional
[2] = test system: HT-29; test: Down-regulation of VEGFRA mRNA expression in human HT-29 cells assessed as VEGFRA mRNA level at 20 uM after 48 hrs by RT-qPCR analysis (reference value: 100%); assay type: functional
[3] = test system: HT-29; test: Down-regulation of c-Myc protein expression in human HT-29 cells assessed as c-Myc protein level at 40 uM after 48 hrs by ELISA (reference value: 100%); assay type: functional
[4] = test system: HT-29; test: Down-regulation of VEGFA protein expression in human HT-29 cells assessed as VEGFA protein level at 40 uM after 48 hrs by ELISA (reference value: 100%); assay type: functional
[5] = Selectivity index, ratio of IC50 for HEK293 cells to IC50 for human MCF7 cells; conditions: HEK293 cells versus MCF7 cells
[6] = Selectivity index, ratio of IC50 for HEK293 cells to IC50 for human HT-29 cells; assay type: toxicity; conditions: HEK293 cells versus HT-29 cells, read-out: Ratio IC50
[7] = test system: HT-29; test: Cytotoxicity against human HT-29 cells assessed as decrease in cell viability after 2 days by MTT assay; assay type: functional, cell-based; conditions: HT-29, 48 h
[8] = test system: HEK293; test: Cytotoxicity against HEK293 cells assessed as decrease in cell viability after 2 days by MTT assay; assay type: ADME, cell-based; conditions: Homo sapiens, HEK293, 48 h
[9] = test system: MCF7; test: Cytotoxicity against human MCF7 cells assessed as decrease in cell viability after 2 days by MTT assay; assay type: functional, cell-based; conditions: MCF7, 48 h
[10] = test system: HT-29; test: Down-regulation of c-Myc mRNA expression in human HT-29 cells assessed as c-Myc mRNA level at 40 uM after 48 hrs by RT-qPCR analysis (reference value: 100%); assay type: functional
[11] = test system: HT-29; test: Down-regulation of hTERT mRNA expression in human HT-29 cells assessed as hTERT mRNA level at 240 uM after 48 hrs by RT-qPCR analysis (reference value: 100%); assay type: functional
[12] = test system: HT-29; test: Down-regulation of c-Myc protein expression in human HT-29 cells assessed as c-Myc protein level at 240 uM after 48 hrs by ELISA (reference value: 100%); assay type: functional
[13] = test system: HT-29; test: Down-regulation of VEGFRA mRNA expression in human HT-29 cells assessed as VEGFRA mRNA level at 240 uM after 48 hrs by RT-qPCR analysis (reference value: 100%); assay type: functional
[14] = test system: HT-29; test: Down-regulation of VEGFA protein expression in human HT-29 cells assessed as VEGFA protein level at 240 uM after 48 hrs by ELISA (reference value: 100%); assay type: functional
[15] = test system: HT-29; test: Down-regulation of c-Myc mRNA expression in human HT-29 cells assessed as c-Myc mRNA level at 240 uM after 48 hrs by RT-qPCR analysis (reference value: 100%); assay type: functional
[16] = test system: HT-29; test: Down-regulation of VEGFA protein expression in human HT-29 cells assessed as VEGFA protein level at 20 uM after 48 hrs by ELISA (reference value: 100%); assay type: functional
[17] = test system: HT-29; test: Down-regulation of c-Myc mRNA expression in human HT-29 cells assessed as c-Myc mRNA level at 20 uM after 48 hrs by RT-qPCR analysis (reference value: 100%); assay type: functional
[18] = test system: HT-29; test: Down-regulation of c-Myc protein expression in human HT-29 cells assessed as c-Myc protein level at 20 uM after 48 hrs by ELISA (reference value: 100%); assay type: functional
[19] = test system: HT-29; test: Down-regulation of hTERT mRNA expression in human HT-29 cells assessed as hTERT mRNA level at 20 uM after 48 hrs by RT-qPCR analysis (reference value: 100%); assay type: functional
[20] = test system: HT-29; test: Down-regulation of VEGFRA mRNA expression in human HT-29 cells assessed as VEGFRA mRNA level at 100 uM after 48 hrs by RT-qPCR analysis (reference value: 100%); assay type: functional
[21] = test system: HT-29; test: Down-regulation of c-Myc mRNA expression in human HT-29 cells assessed as c-Myc mRNA level at 100 uM after 48 hrs by RT-qPCR analysis (reference value: 100%); assay type: functional
[22] = test system: HT-29; test: Down-regulation of c-Myc protein expression in human HT-29 cells assessed as c-Myc protein level at 100 uM after 48 hrs by ELISA (reference value: 100%); assay type: functional
[23] = test system: HT-29; test: Down-regulation of hTERT mRNA expression in human HT-29 cells assessed as hTERT mRNA level at 100 uM after 48 hrs by RT-qPCR analysis (reference value: 100%); assay type: functional
[24] = test system: HT-29; test: Down-regulation of VEGFA protein expression in human HT-29 cells assessed as VEGFA protein level at 100 uM after 48 hrs by ELISA (reference value: 100%); assay type: functional
[25] = test system: HT-29; test: Down-regulation of hTERT mRNA expression in human HT-29 cells assessed as hTERT mRNA level at 160 uM after 48 hrs by RT-qPCR analysis (reference value: 100%); assay type: functional
[26] = test system: HT-29; test: Down-regulation of VEGFRA mRNA expression in human HT-29 cells assessed as VEGFRA mRNA level at 160 uM after 48 hrs by RT-qPCR analysis (reference value: 100%); assay type: functional
[27] = test system: HT-29; test: Down-regulation of VEGFA protein expression in human HT-29 cells assessed as VEGFA protein level at 160 uM after 48 hrs by ELISA (reference value: 100%); assay type: functional
[28] = test system: HT-29; test: Down-regulation of c-Myc protein expression in human HT-29 cells assessed as c-Myc protein level at 160 uM after 48 hrs by ELISA (reference value: 100%); assay type: functional
[29] = test system: HT-29; test: Down-regulation of c-Myc mRNA expression in human HT-29 cells assessed as c-Myc mRNA level at 160 uM after 48 hrs by RT-qPCR analysis (reference value: 100%); assay type: functional
[30] = test system: HT-29; test: Down-regulation of c-Myc protein expression in human HT-29 cells assessed as c-Myc protein level at 80 uM after 48 hrs by ELISA (reference value: 100%); assay type: functional
[31] = test system: HT-29; test: Down-regulation of c-Myc mRNA expression in human HT-29 cells assessed as c-Myc mRNA level at 80 uM after 48 hrs by RT-qPCR analysis (reference value: 100%); assay type: functional
[32] = test system: HT-29; test: Down-regulation of hTERT mRNA expression in human HT-29 cells assessed as hTERT mRNA level at 80 uM after 48 hrs by RT-qPCR analysis (reference value: 100%); assay type: functional
[33] = test system: HT-29; test: Down-regulation of VEGFA protein expression in human HT-29 cells assessed as VEGFA protein level at 80 uM after 48 hrs by ELISA (reference value: 100%); assay type: functional
[34] = test system: HT-29; test: Down-regulation of VEGFRA mRNA expression in human HT-29 cells assessed as VEGFRA mRNA level at 80 uM after 48 hrs by RT-qPCR analysis (reference value: 100%); assay type: functional
[35] = test system: HT-29; test: Down-regulation of VEGFRA mRNA expression in human HT-29 cells assessed as VEGFRA mRNA level at 40 uM after 48 hrs by RT-qPCR analysis (reference value: 100%); assay type: functional
[36] = test system: HT-29; test: Down-regulation of VEGFA protein expression in human HT-29 cells assessed as VEGFA protein level at 145 uM after 48 hrs by ELISA (reference value: 100%); assay type: functional
[37] = test system: HT-29; test: Down-regulation of c-Myc protein expression in human HT-29 cells assessed as c-Myc protein level at 145 uM after 48 hrs by ELISA (reference value: 100%); assay type: functional
[38] = test system: HT-29; test: Down-regulation of hTERT mRNA expression in human HT-29 cells assessed as hTERT mRNA level at 145 uM after 48 hrs by RT-qPCR analysis (reference value: 100%); assay type: functional
[39] = test system: HT-29; test: Down-regulation of VEGFRA mRNA expression in human HT-29 cells assessed as VEGFRA mRNA level at 145 uM after 48 hrs by RT-qPCR analysis (reference value: 100%); assay type: functional
[40] = test system: HT-29; test: Down-regulation of c-Myc mRNA expression in human HT-29 cells assessed as c-Myc mRNA level at 145 uM after 48 hrs by RT-qPCR analysis (reference value: 100%); assay type: functional

SMILES | selectivity ratio [5] | selectivity ratio [6] | IC50 [7] [µM] | IC50 [8] [µM] | IC50 [9] [µM] | other results
COc1ccc(-c2ccccn2)cc1OC | < 1 | 3 | 56 | 170 | 210 | Activity [1]: 20%; Activity [2]: 8%; Activity [3]: 100%; Activity [4]: 48%; Activity [10]: 38%
c1ccc(-c2cccnc2)cc1 | < 1 | < 1 | > 400 | 321 | > 400 | Activity [11]: 56%; Activity [12]: 60%; Activity [13]: 34%; Activity [14]: 42%; Activity [15]: 35%
COc1ccc(-c2cncnc2)c(OC)c1 | – | – | > 400 | > 400 | > 400 | –
COc1ccc(-c2ncccn2)c(OC)c1 | < 1 | < 1 | 30 | 20 | 130 | Activity [16]: 48%; Activity [2]: 33%; Activity [17]: 18%; Activity [18]: 63%; Activity [19]: 85%
Oc1ccccc1-c1ccccn1 | 57 | 2 | 197 | 390 | 7 | Activity [20]: 31%; Activity [21]: 17%; Activity [22]: 62%; Activity [23]: 36%; Activity [24]: 65%
c1ccc(N2CCCC2)cc1 | – | – | > 400 | > 400 | > 400 | –
COc1cccc(N2CCOCC2)c1 | 5 | 3 | 160 | > 400 | 100 | Activity [25]: 72%; Activity [26]: 54%; Activity [27]: 50%; Activity [28]: 100%; Activity [29]: 62%
COc1ccc(N2CCCC2)cc1 | 5 | 3 | 210 | 350 | > 400 | Activity [20]: 55%; Activity [21]: 79%; Activity [22]: 100%; Activity [23]: 35%; Activity [24]: 79%
c1ccc(N2CCCCC2)cc1 | 4 | 5 | 120 | > 400 | 157 | Activity [30]: 95%; Activity [31]: 52%; Activity [32]: 41%; Activity [33]: 75%; Activity [34]: 89%
COc1ccc(-c2cccnc2)cc1OC | > 2 | – | > 400 | > 400 | 223 | –
c1ccc(N2CCOCC2)cc1 | 5 | 3 | 240 | > 400 | 120 | Activity [25]: 57%; Activity [26]: 79%; Activity [27]: 79%; Activity [28]: 95%; Activity [29]: 67%
COc1ccc(-c2ccccn2)c(OC)c1 | < 1 | < 1 | > 400 | 234 | > 400 | –
COc1ccc(N2CCCCC2)cc1 | 2 | – | 120 | 100 | 71 | –
COc1ccc(-c2cccnc2)c(OC)c1 | < 1 | 2 | 59 | 100 | 210 | Activity [35]: 32%; Activity [1]: 28%; Activity [3]: 56%; Activity [4]: 52%; Activity [10]: 39%
Oc1ccccc1-c1cccnc1 | 7 | 2 | 115 | 294 | 41 | Activity [36]: 96%; Activity [37]: 100%; Activity [38]: 44%; Activity [39]: 18%; Activity [40]: 39%
C=CCc1ccc(O)c(-c2ccc(O)c(CC=C)c2)c1 [HONOKIOL] | 2 | 2 | 25 | 40 | 35 | Activity [16]: 55%; Activity [2]: 36%; Activity [17]: 45%; Activity [18]: 53%; Activity [19]: 45%
c1ccc(-c2cncnc2)cc1 | > 50 | – | > 400 | > 400 | 7 | –
COc1ccc(-c2cncnc2)cc1OC | 2 | – | > 400 | > 400 | 200 | –
COc1ccc(N2CCOCC2)cc1 | 7 | 3 | 180 | > 400 | 73 | Activity [25]: 63%; Activity [26]: 66%; Activity [27]: 64%; Activity [28]: 100%; Activity [29]: 96%
COc1cccc(N2CCCC2)c1 | 3 | 3 | 310 | 210 | 51 | –
Oc1ccccc1-c1ncccn1 | 14 | – | > 400 | > 400 | 41 | –
COc1ccc(-c2ncccn2)cc1OC | > 9 | – | > 400 | > 400 | 48 | –
Oc1ccccc1-c1cncnc1 | 2 | < 1 | 380 | 90 | 61 | –
